Test results as given in publication PMC9116245, “New 1,2,3-triazole linked ciprofloxacin-chalcones induce DNA damage by inhibiting human topoisomerase I& II and tubulin polymerization” (Journal of Enzyme Inhibition and Medicinal Chemistry, 2022).
pIC50: −log10 of the molar value. Where two headings read alike, the source gives them in different places.

How the values were obtained:
[1] = test system: K-562; format: cell-based, human
[2] = test system: RPMI-8226; format: cell-based
[3] = test system: NCI-H460; format: cell-based; settings: Homo sapiens
[4] = test system: NCI-H522; format: cell-based; settings: Homo sapiens
[5] = test system: COLO 205; format: cell-based; settings: Homo sapiens
[6] = test system: HCC-2998; format: cell-based; settings: Homo sapiens
[7] = test system: HCT-116; format: cell-based, human
[8] = test system: SF-295; format: cell-based; settings: Homo sapiens
[9] = test system: SNB-19; format: cell-based; settings: Homo sapiens
[10] = test system: U251; format: cell-based; settings: Homo sapiens
[11] = test system: LOX IMVI; format: cell-based; settings: Homo sapiens
[12] = test system: MDA-MB-435; format: cell-based; settings: Homo sapiens
[13] = test system: SK-MEL-2; format: cell-based; settings: Homo sapiens
[14] = test system: SK-MEL-28; format: cell-based; settings: Homo sapiens
[15] = test system: OVCAR-5; format: cell-based; settings: Homo sapiens
[16] = test system: OVCAR-8; format: cell-based; settings: Homo sapiens
[17] = test system: NCI/ADR-RES; format: cell-based; settings: Homo sapiens
[18] = test system: SK-OV-3; format: cell-based; settings: Homo sapiens
[19] = test system: Melanoma (cell line name not given); format: cell-based; settings: Homo sapiens, under Melanoma
[20] = test system: SN12C; format: cell-based; settings: Homo sapiens
[21] = test system: TK-10; format: cell-based; settings: Homo sapiens
[22] = test system: MCF7; format: cell-based, human
[23] = test system: MDA-MB-231/ATCC; format: cell-based
[24] = test system: BT-549; format: cell-based; settings: Homo sapiens
[25] = test system: MDA-MB-468; format: cell-based; settings: Homo sapiens
[26] = test system: Human Embryonic Kidney (HEK) 293 cells; assay: Cytotoxicity assay with non-cancerous cells (MTS); format: cell-based; settings: HEK293 versus cancer cells
Procedure: To evaluate the selectivity and safety profile of the synthesised CP hybrids, a cytotoxicity experiment of compounds 4a, 4b, 4e, 4i, and 4j was performed using normal Human Embryonic Kidney (HEK) 293 cells.
To evaluate the selectivity and safety profile of the synthesised ciprofloxacin-chalcone hybrids, a cytotoxicity experiment was performed using a non-cancerous cell line. Briefly, Human Embryonic Kidney (HEK) 293 cells (ATCC, Manassas, VA, USA) were cultured in a Dulbecco’s Modified Eagle Medium (DEMEM) supplemented with 1 mM sodium pyruvate, 10 mM HEPES buffer solution, 2 mM GlutaMAX (Gibco, Grand Island, NY, USA), 50 µg/mL gentamycin sulphate (Dubuque, IA, USA), and 10% foetal bovine serum (ThermoFisher Scientific, USA). Cells were seeded in 96-well plates and incubated overnight in a humidified atmosphere with 5% CO2 at 37 °C. After 24 h, cells were treated with different concentrations (0.01–100 µM) of ciprofloxacin-chalcone hybrids. Also, DMSO and doxorubicin were used as negative and positive controls, respectively. After 72 h, old medium containing treatments were removed, and fresh medium and MTS reagents (CellTiter 96® AQueous One Solution Cell Proliferation Assay, Promega, Madison, WI, USA) were added. […] After 2 h, the absorbance was measured at 490 nm using a Spectra Max plus 384 Microplate reader (Molecular Devices, Sunnyvale, CA, USA) [74]. […]

[27] = read-out: LC50 (the source's name)

Which results are given for COc1cc(/C=C/C(=O)c2ccc(-n3cc(CN4CCN(c5cc6c(cc5F)c(=O)c(C(=O)O)cn6C5CC5)CC4)nn3)cc2)cc(OC)c1OC [Compound 4j, (E)-1-cyclopropyl-6-fluoro-4-oxo-7–(4-((1–(4-(3-(3,4,5-trimethoxyphenyl)acryloyl)phenyl)-1H-1,2,3-triazol-4-yl)methyl)piperazin-1-yl)-1,4-dihydroquinoline-3-carboxylic acid]?
GI50 [1]: 970 nM; GI50 ([1]; Homo sapiens, K562): 977 nM; CC50 ([1]; Homo sapiens, K562, read-out: LC50 (the source's name)): > 100 µM; GI50 ([2]; Homo sapiens, RPMI-8226, RPMI-8226): 401 nM; CC50 ([2]; Homo sapiens, RPMI-8226, read-out: LC50 (the source's name)): > 100 µM; GI50 ([2]; RPMI-8226): 400 nM; GI50 [3]: 2400 nM; CC50 [3, 27]: > 100 µM; GI50 [4]: 4.25 µM; LC50 [4]: > 100 µM; GI50 [5]: 5.08 µM; CC50 [5, 27]: > 100 µM; GI50 [6]: 1730 nM; GI50 ([7]; HCT-116): 210 nM; GI50 ([7]; Homo sapiens, HCT-116, HCT-116): 206 nM; pIC50 ([7]; Homo sapiens, HCT-116, HCT116, SRB assay): 6.70; GI50 [8]: 2910 nM; CC50 [8, 27]: > 100 µM; GI50 [9]: 4.52 µM; CC50 [9, 27]: > 100 µM; GI50 ([10]; U-251): 1480 nM; CC50 ([10]; U-251, read-out: LC50 (the source's name)): > 100 µM; GI50 [11]: 1570 nM; CC50 [11, 27]: > 100 µM; GI50 [12]: 1490 nM; CC50 [12, 27]: > 100 µM; GI50 [13]: 21.1 µM; CC50 [13, 27]: > 100 µM; GI50 [14]: 2770 nM; LC50 [14]: 78.9 µM; GI50 [15]: 3.7 µM; CC50 [15, 27]: > 100 µM; GI50 [16]: 4.03 µM; CC50 [16, 27]: > 100 µM; GI50 [17]: > 100 µM; CC50 [17, 27]: > 100 µM; GI50 [18]: 7.09 µM; CC50 [18, 27]: > 100 µM; GI50 [19]: 1730 nM; GI50 [20]: 2660 nM; CC50 [20, 27]: 46.2 µM; GI50 [21]: 5.61 µM; CC50 [21, 27]: > 100 µM; GI50 ([22]; Homo sapiens, MCF7, MCF7): 396 nM; CC50 ([22]; Homo sapiens, MCF7, read-out: LC50 (the source's name)): > 100 µM; GI50 ([22]; MCF7): 390 nM; GI50 ([23]; Homo sapiens, MDA-MB-231, MDA-MB231/ATCC): 3.2 µM; CC50 ([23]; Homo sapiens, MDA-MB-231/ATCC, read-out: LC50 (the source's name)): > 100 µM; TGI ([23]; MDA-MB231/ATCC): >100 µM; TGI ([23]; MDA-MB-231/ATCC): > 1.00E-4 Molar; GI50 [24]: 1710 nM; GI50 [25]: 1960 nM; CC50 [25, 27]: > 100 µM; selectivity index compared with Doxorubicin [26]: six-fold better
